Patent US12043599B2, “Herbicidal compounds” (SYNGENTA PARTICIPATIONS AG, priority 2018, dated 2024)

Tests used:
Type in all cases: in vivo
Conditions in all cases: 250 g/h, evaluated after 13 days
[1] = test system: Alopecurus myosuroides (ALOMY); test: Pre-emergence herbicidal glasshouse test, percentage damage
Method in brief: (§1)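 Spray: 250 g/h, aqueous acetone/water 50:50 + 0.5% Tween 20; pre-em 1 d after sowing, post-em at 8 d. Glasshouse 24/16 °C, 14 h light, 65% RH, watered twice daily. Read % damage at 13 d, scored 1–5 (5=80-100%).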

Avena fatua (AVEFA) [2] = test: as above
Method in brief: as §1

[3] = test system: Echinochloa crus-galli (ECHCG); test: as above
Method in brief: as §1

Lolium perenne (LOLPE) [4] = test: as above
Method in brief: as §1

Setaria faberi (SETFA) [5] = test: as above
Method in brief: as §1

Setaria faberi (SETFA) [6] = test: Post-emergence herbicidal glasshouse test, percentage damage
Method in brief: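 Percentage damage was scored 13 days after treatment on a five-point scale (1=0-19% to 5=80-100%). Treatments were post-emergence sprays on 8-day-old wheat, barley and SETFA plants in a glasshouse (24/16 °C day/night, 14 h light, 65% humidity), using acetone/water 50:50 with 0.5% Tween 20 at the stated rates. Wheat additionally received cloquintocet-mexyl safener at 50 g/ha.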

[7] = test system: Alopecurus myosuroides (ALOMY); test: as above
Method in brief: as §1

Avena fatua (AVEFA) [8] = test: as above
Method in brief: as §1

[9] = test system: Echinochloa crus-galli (ECHCG); test: as above
Method in brief: as §1

Lolium perenne (LOLPE) [10] = test: as above
Method in brief: as §1

Compound	ALOMY PRE percentage damage (five point scale) [1]	AVEFA PRE percentage damage (five point scale) (Avena fatua (AVEFA) [2])	ECHCG PRE percentage damage (five point scale) [3]	LOLPE PRE percentage damage (five point scale) (Lolium perenne (LOLPE) [4])	SETFA PRE percentage damage (five point scale) (Setaria faberi (SETFA) [5])	SETFA POST percentage damage (five point scale) (Setaria faberi (SETFA) [6])	ALOMY POST percentage damage (five point scale) [7]	AVEFA POST percentage damage (five point scale) (Avena fatua (AVEFA) [8])	ECHCG POST percentage damage (five point scale) [9]	LOLPE POST percentage damage (five point scale) (Lolium perenne (LOLPE) [10])
CC#Cc1cc(C)c(C2=C(OC(=O)OCCOC)CC3(CCN(C(=O)OCCOC)CC3)CC2=O)c(C)c1 [Compound P52]	5 (5=80-100%)	5 (5=80-100%)	5 (5=80-100%)	5 (5=80-100%)	5 (5=80-100%)	5 (5=80-100%)	5 (5=80-100%)	5 (5=80-100%)	5 (5=80-100%)	5 (5=80-100%)
CC#Cc1cc(C)c(C2=C(OC(=O)c3ccccn3)CC3(CCN(C(=O)c4ccccn4)CC3)CC2=O)c(C)c1 [Compound P25]	5 (5=80-100%)	5 (5=80-100%)	5 (5=80-100%)	5 (5=80-100%)	5 (5=80-100%)	5 (5=80-100%)	5 (5=80-100%)	5 (5=80-100%)	5 (5=80-100%)	5 (5=80-100%)
CC#Cc1cc(C)c(C2C(=O)CC3(CCN(C(=O)OC(C)(C)C)CC3)CC2=O)c(C)c1 [Compound A12, tert-butyl 9-(2,6-dimethyl-4-prop-1-ynyl-phenyl)-8,10-dioxo-3-azaspiro[5.5]undecane-3-carboxylate]	4 (4=60-79%)	4 (4=60-79%)	5 (5=80-100%)	5 (5=80-100%)	5 (5=80-100%)	5 (5=80-100%)	5 (5=80-100%)	5 (5=80-100%)	5 (5=80-100%)	5 (5=80-100%)
CC#Cc1cc(C)c(C2C(=O)CC3(CCN(C(=O)[C@@H](C)O)CC3)CC2=O)c(C)c1 [Compound A156]	5 (5=80-100%)	5 (5=80-100%)	5 (5=80-100%)	5 (5=80-100%)	5 (5=80-100%)	5 (5=80-100%)	5 (5=80-100%)	5 (5=80-100%)	5 (5=80-100%)	5 (5=80-100%)
CC#Cc1cc(C)c(C2C(=O)CC3(CCN(C(=O)NC(=O)c4ccc(F)cn4)CC3)CC2=O)c(C)c1 [Compound A157]	3 (3=40-59%)	2 (2=20-39%)	5 (5=80-100%)	5 (5=80-100%)	5 (5=80-100%)	5 (5=80-100%)	5 (5=80-100%)	5 (5=80-100%)	5 (5=80-100%)	5 (5=80-100%)
CC#Cc1cc(C)c(C2=C(OC(C)=O)CC3(CCN(C(=O)NC(C)=O)CC3)CC2=O)c(C)c1 [Compound P12]	4 (4=60-79%)	4 (4=60-79%)	5 (5=80-100%)	5 (5=80-100%)	5 (5=80-100%)	5 (5=80-100%)	5 (5=80-100%)	5 (5=80-100%)	5 (5=80-100%)	5 (5=80-100%)
CC#Cc1cc(C)c(C2C(=O)CC3(CCN(C(=O)c4ccc(C(F)(F)F)cn4)CC3)CC2=O)c(C)c1 [Compound A89]	5 (5=80-100%)	5 (5=80-100%)	5 (5=80-100%)	5 (5=80-100%)	5 (5=80-100%)	5 (5=80-100%)	5 (5=80-100%)	5 (5=80-100%)	5 (5=80-100%)	5 (5=80-100%)
CC#Cc1cc(C)c(C2=C(OC(=O)OC)CC3(CCN(C(=O)NC(C)(C)C)CC3)CC2=O)c(C)c1 [Compound P13]	5 (5=80-100%)	5 (5=80-100%)	5 (5=80-100%)	5 (5=80-100%)	5 (5=80-100%)	5 (5=80-100%)	5 (5=80-100%)	5 (5=80-100%)	5 (5=80-100%)	5 (5=80-100%)
CC#Cc1cc(C)c(C2=C(OC(=O)OC)CC3(CCN(S(=O)(=O)CC)CC3)CC2=O)c(C)c1 [Compound P7, [9-(2,6-dimethyl-4-prop-1-ynyl-phenyl)-3-ethylsufonyl-10-oxo-3-azaspiro[5.5]undec-8-en-8-yl] methyl carbonate]	5 (5=80-100%)	5 (5=80-100%)	5 (5=80-100%)	5 (5=80-100%)	5 (5=80-100%)	5 (5=80-100%)	5 (5=80-100%)	5 (5=80-100%)	5 (5=80-100%)	5 (5=80-100%)
CC#Cc1cc(C)c(C2C(=O)CC3(CCN(C(=O)c4cnccn4)CC3)CC2=O)c(C)c1 [Compound A16]	5 (5=80-100%)	5 (5=80-100%)	5 (5=80-100%)	5 (5=80-100%)	5 (5=80-100%)	5 (5=80-100%)	5 (5=80-100%)	5 (5=80-100%)	5 (5=80-100%)	5 (5=80-100%)
